Test results taken from PMC5712521, “Dendrogenin A drives LXR to trigger lethal autophagy in cancers” (Nature Communications, 2017).
Where two headings read alike, the source gives them in different places.

Columns and labels:
AML patient samples = assay: Annexin-V/7AAD viability assay on AML patient samples (bulk and CD34+CD38−CD123+ progenitor/LSC); assay type: cell-based, human; conditions: for IC50: Homo sapiens, 48 h, panel of 61 AML patient samples
Description: The cytotoxic response to DDA of AML cells was determined by flow cytometry. Cells were exposed to DDA for 24 or 48 h then washed with cold phosphate-buffered saline (PBS) and resuspended in 200 µl of Annexin-V binding buffer. For the analysis of AML patient samples, cells were incubated with antibodies against the surface markers CD45-V450 (clone H130), CD34-PeCy7 (clone 8G12), CD38-APC (clone HB7) and CD123-PE (clone 9F5) (BD Pharmagen) before being resuspended in Annexin-V binding buffer. Annexin-V-fluorescein isothiocyanate (BD Pharmagen, clone 2331) and 7-aminoactinomycin D (7AAD) were then added, and the samples were incubated in the dark at room temperature for 15 min. The percentage of viable cells, Annexin-V-7AAD-negative cells, was scored using a flow cytometer.
AML patient and normal bone marrow samples were obtained from patients in the Hematology Department of Toulouse (France), after obtaining consent in accordance with the Declaration of Helsinki[67], and according to institutional guidelines. Samples were stored at the INSERM-1037 HIMIP collection (no. DC-2008-307-CPTP1 HIMIP). For some experiments, fresh leukemic blasts recovered at diagnosis were immediately treated with DDA. In other cases, frozen cells were thawed in IMDM medium with 20% FBS. Patient characteristics are shown in supplementary data 1. Normal bone marrow cells were subjected to Ficoll-Paque density gradient separation to isolate mononuclear cells, followed by CD34+ cell separation using high-gradient magnetic-activated cell sorting, according to the manufacturer’s manual. The in vivo assays were performed with cryopreserved cells.

B16F10 cells = assay: Cell cycle analysis by flow cytometry; assay type: cell-based, mouse; conditions: 5 µM DDA, 48 h
Description: Control and DDA-treated cells were fixed in 70% ethanol and then washed with PBS. Cells were incubated with 100 μg/ml RNase A for 30 min at 37 °C, permeabilized with 0.25% Tween-20, and stained with 50 μg/ml propidium iodide (PI) for 30 min at 37 °C. The DNA content of stained cells was analyzed by flow cytometry. The fraction of cells in sub-G1 phase was calculated using flowJo software (Ashland, Oregon). Data were obtained from 10^5 viable cells. […]

SKMEL-2 cells = assay: Clonogenicity inhibition; assay type: cell-based; conditions: Homo sapiens, SK-MEL-2; SKMEL-2 (H); 72 h; read-out: Clono IC50
Text: Supplementary Fig. 1. a DDA inhibited m elanom a colony form ation. Melanom a cells were […]
a 0.5% solution of crystal violet in water and analyzed by microscopy. Images are representative of 5 independent experiments. b Evaluation of DDA-induced cytotoxicity (cytotox) and clonogenicity (clono) inhibition in a subset of human (H) and mouse (M) m elanom a cell lines. T he BRaf status in m elanom a cells lines is shown. […]

in vivo = assay: in vivo; parameters: species or system NSG mice; conditions: mouse, 20 mg/kg
Description: Administration R oute p.o. i. p. i. v.
T 1/2 distribution (h) - - 0.11*** […]
Bars represent S.E.M. ( ***P<0.001, **P<0.01, t test).
(also on this page, place not known: plasma times treatment mice administration plasma times treatment mice administration mg/kg mg/kg Summary pharmacokinetic parameters mice. were measured daily administration mg/kg days. (***P<0.001, mg/kg DDA in plasma (p.o.) (p.o.) DDA in plasma (µM) i.p. i.v. (mg/kg) 20 T1/2 0.1 T1/2 elimination 1.0 T1/2 - Bioavailability (%EP) (µM) 370 Tmax 0.002 marrow 0.01 0.1 1 10 Control DDA DDA level (µM) ***)

SKMEL-28 tumors = assay: SKMEL-28 melanoma xenograft; assay type: in vivo, mice; conditions: human SKMEL-28; i.p. 20 mg/kg/day
Description: Exponentially growing cells were harvested, washed twice in PBS then resuspended in PBS. SKMEL-28, shSKMEL-28 clones (5 × 10^6 cells) and B16F10 (3 × 10^5) cells were injected subcutaneously (s.c.) into the flank of nude mice. HL60, KG1 and shKG1-clones (5 × 10^6) were inoculated s.c. into the flanks of NOD/SCID mice. When tumors were palpable, animals (n = 10–20 mice per group, as indicated) were randomized to receive either DDA (20 mg/kg) intraperitoneally (i.p.) or 40 mg/kg by oral gavage (p.o), once a day, or vehicle solvent for the indicated time. Animals were examined daily and body weights were measured twice a week. In all experiments, tumor volume was determined by direct measurement with a caliper and was calculated using the formula (width^2 × length)/2. At the end of experiments, mice were sacrificed and tumors were excised and divided for intra-tumoral DDA quantification, immunoblotting, or immunohistochemistry analyses.

AML cells = assay: Immunoblot of caspase-3 and PARP in AML cells; assay type: cell-based, human; conditions: 24 h
Description: Immunoblotting was carried out as described previously. Proteins were separated on SDS-PAGE gels, electro-transferred onto polyvinylidene difluoride membranes and incubated overnight at 4 °C with the following antibodies: anti-Atg3, anti-Atg5 (D1G9), anti-Atg7 (D12B11), anti-Beclin (D40C5), anti-caspase-3 (Cell Signaling), anti-Bcl-2 (Millipore), anti-Bax (Millipore), anti-LC3 (Sigma-Aldrich), anti-LXRα (SantaCruz), anti-LXRβ (SantaCruz), anti-Nur77 (Active motif), anti-NOR1 (R&D systems), anti-PARP (Cell Signaling), anti-Vps34 (Cell Signaling), or anti-Actin (Millipore). For visualization, an ECL plus kit (Amersham Biosciences) was used, and chemiluminescence was measured by autoradiography (Supplementary Fig. 9). Specific bands were quantified with ImageQuant software.
Supplementary Fig. 6. […]
AML cells treated with DDA for 24 h in the absence or presence of 50 µM z- VAD-fmk (a
caspase inhibitor). j Effect of z-VAD-fmk on DDA-induced c ytotox icit y in KG1 and HL60 cells. […]
Images are
representative of 3 independent experim ents.

CC(C)CCC[C@@H](C)[C@H]1CC[C@H]2[C@@H]3C[C@@H](NCCc4cnc[nH]4)[C@@]4(O)C[C@@H](O)CC[C@]4(C)[C@H]3CC[C@]12C [DDA, Dendrogenin A]
efficiency relative to cytarabine (AML patient samples; AML bulk and progenitor/LSC (CD34+CD38−CD123+) subpopulation): 100 fold
IC50 (AML patient samples; read-out: median IC50, cell viability): 3.3 µM
IC50 (AML patient samples; read-out: range of IC50, cell viability): 1.2 to 11.3 µM
Cell cycle distribution: G0/G1 (B16F10 cells): 54.50%
Cell cycle distribution: G2/M (B16F10 cells): 9.83%
Cell cycle distribution: S (B16F10 cells): 9.68%
Cell cycle distribution: Sub G0/G1 (B16F10 cells): 25.03%
IC50 (SKMEL-2 cells): 1.4 ± 0.4 µM
Cmax (in vivo; NSG, ip): 6.1 ± 0.95 µM
Plasma clearance (in vivo; NSG, ip): 28 mL/min/kg
Tmax (in vivo; NSG, ip): 2 h
half-life (in vivo; NSG, ip, T1/2 absorption): 19 h
half-life (in vivo; NSG, ip, T1/2 elimination): 0.9 h
Cmax (in vivo; NSG, iv): 370 µM
Tmax (in vivo; NSG, iv): 0.002 h
clearance (in vivo; NSG, iv): 27 mL/min/kg
half-life (in vivo; NSG, iv, T1/2 distribution): 0.1 h
half-life (in vivo; NSG, iv, T1/2 elimination): 0.6 h
Cmax (in vivo; NSG, po): 5.05 µM
Plasma clearance (in vivo; NSG, po): 26.2 mL/min/kg
Tmax (in vivo; NSG, po): 3 h
half-life (in vivo; NSG, po, T1/2 absorption): 43 h
half-life (in vivo; NSG, po, T1/2 elimination): 1 h
Bioavailability (in vivo; iv): 100 % EP
tumor growth (SKMEL-28 tumors): significantly reduced the growth
cleaved PARP, densitometry (AML cells; 5 µM DDA + 50 µM z-VAD-fmk): 1.9
cleaved casp 3, densitometry (AML cells; 5 µM DDA + 50 µM z-VAD-fmk): 0.5
cleaved PARP, densitometry (AML cells; 5 µM DDA, without z-VAD-fmk): 6.1
cleaved casp 3, densitometry (AML cells; 5 µM DDA, without z-VAD-fmk): 4.3
cleaved PARP, densitometry (AML cells; 10 µM DDA + 50 µM z-VAD-fmk): 6.1
cleaved casp 3, densitometry (AML cells; 10 µM DDA + 50 µM z-VAD-fmk): 0.8
cleaved PARP, densitometry (AML cells; 10 µM DDA, without z-VAD-fmk): 10.8
cleaved casp 3, densitometry (AML cells; 10 µM DDA, without z-VAD-fmk): 5.2
